Experimental data taken from paper PMC12406652 (Antimicrobial Agents and Chemotherapy, 2025).
Marks after values point to notes of the source that are not given here.

Key:
[1] = Drug-drug interaction, single dose CTB 400 mg + LED-E 500 mg, cross-over (VNRX-7145-102 Part 1); details: human, plasma, oral
[2] = Urinary recovery on Day 10 after multiple doses of CTB + LED-E q8h (VNRX-7145-102 Part 3); details: for Ae0–8 / Fe0–8 / CL renal: urine, geometric mean (geometric CV %); for CL renal: human, oral, CLr
[3] = Plasma pharmacokinetics on Day 10 after multiple doses of LED-E q8h (VNRX-7145-101 Part 2, VNRX-7145-102 Part 2); format: in vivo, human; details: human, oral, plasma; for AUC / Cmax / Vd/F / half-life: geometric mean (CV %); for Vd/F: read-out: Vz/F; for Tmax: median (range); for half-life: read-out: t1/2 (converted)
Experimental: Quantitation used separate weighted 1 /x^2 linear least-squares regression analyses generated from calibration standards. Exploratory screening for metabolites was performed for some samples. […] […] […] Dose proportionality was analyzed using a power model in which pharmacokinetic exposure parameters and dose were converted to the natural log and linear regression results were reported, with the slope as the power estimate ([15]). […] In Part 2, achievement of steady-state concentrations was assessed using Tukey’s multiple comparison test for pre-dose and all dosing days (Days 2 to 10) for each dose level separately. […] Plasma pharmacokinetic parameters were calculated using noncompartmental analysis of the plasma and urine concentration-time data. […] AUCinf and Cmax were natural log-transformed before analysis, using a linear mixed effects model. […] In both studies, plasma pharmacokinetic parameters were calculated using WinNonlin (Certara; Radnor, PA), and urine pharmacokinetic parameters were calculated using SAS (SAS Institute; Cary, NC).

[4] = Urinary pharmacokinetics after single doses of LED-E; format: in vivo, human; details: urine, geometric mean (geometric CV %); for CL renal: human, oral
Experimental: Plasma and urine pharmacokinetics samples were assayed for LED-E, LED, and CTB, as appropriate using validated bioanalytical methods. […] Quantitation used separate weighted 1 /x^2 linear least-squares regression analyses generated from calibration standards. Exploratory screening for metabolites was performed for some samples. In both studies, plasma pharmacokinetic parameters were calculated using WinNonlin (Certara; Radnor, PA), and urine pharmacokinetic parameters were calculated using SAS (SAS Institute; Cary, NC).

[5] = Plasma pharmacokinetics on Day 10 after multiple doses of CTB + LED-E q8h (VNRX-7145-102 Part 3); details: for AUC: AUCtau; for AUC / Cmax / half-life: geometric mean (CV %)
[6] = Plasma pharmacokinetics after single ascending doses of LED-E (VNRX-7145-101 Part 1); format: in vivo; details: human, oral; for Vd/F: read-out: Vz/F; for Tmax: median (range)
Experimental: Quantitation used separate weighted 1 /x^2 linear least-squares regression analyses generated from calibration standards. Exploratory screening for metabolites was performed for some samples. […] Single-dose plasma pharmacokinetic parameters were determined in Part 1, and both single-dose (Day 1) and multiple-dose ([…]) parameters were determined in Part 2. […] Dose proportionality was analyzed using a power model in which pharmacokinetic exposure parameters and dose were converted to the natural log and linear regression results were reported, with the slope as the power estimate ([15]). […] In Part 2, achievement of steady-state concentrations was assessed using Tukey’s multiple comparison test for pre-dose and all dosing days (Days 2 to 10) for each dose level separately. In both studies, plasma pharmacokinetic parameters were calculated using WinNonlin (Certara; Radnor, PA), and urine pharmacokinetic parameters were calculated using SAS (SAS Institute; Cary, NC).

[7] = Urinary pharmacokinetics on Day 10 after multiple doses of LED-E q8h; format: in vivo, human; details: urine, geometric mean (geometric CV %); for CL renal: human, oral
Experimental: Quantitation used separate weighted 1 /x^2 linear least-squares regression analyses generated from calibration standards. Exploratory screening for metabolites was performed for some samples. […] Plasma pharmacokinetic parameters were calculated using noncompartmental analysis of the plasma and urine concentration-time data. […] AUCinf and Cmax were natural log-transformed before analysis, using a linear mixed effects model. […] In both studies, plasma pharmacokinetic parameters were calculated using WinNonlin (Certara; Radnor, PA), and urine pharmacokinetic parameters were calculated using SAS (SAS Institute; Cary, NC).

[8] = Day 10, CTB 400 mg + LED-E 300 mg q8h
[9] = Day 10, CTB 400 mg + LED-E 500 mg q8h
[10] = human, oral, Day 10, CTB 400 mg + LED-E 300 mg q8h
[11] = human, oral, Day 10, CTB 400 mg + LED-E 500 mg q8h
[12] = 1000 mg, single dose LED-E 1,000 mg, geometric mean (CV %)
[13] = single dose LED-E 100 mg, geometric mean (CV %)
[14] = single dose LED-E 200 mg, geometric mean (CV %)
[15] = single dose LED-E 300 mg, geometric mean (CV %)
[16] = single dose LED-E 500 mg, geometric mean (CV %)
[17] = single dose LED-E 800 mg, geometric mean (CV %)
[18] = multiple doses LED-E 500 mg q8h, after last dose (Day 10)

CCC(=O)N[C@H]1Cc2cccc(C(=O)OCOC(=O)C(CC)CC)c2OB1O [Ledaborbactam etzadroxil]
AUC(0-inf) [1]: 1070 ng·h/mL
Cmax [1]: 787 ng/mL
AUC(0-inf) ([1]; 500 mg): 1140 ng·h/mL
Cmax ([1]; 500 mg): 1040 ng/mL
Ae0–8 [2, 8]: 0.0113 (41.4) mg
Fe0–8 [2, 8]: 0.00377 (41.4) %
Ae0–8 [2, 9]: 0.0271 (58.4)^d mg
Fe0–8 [2, 9]: 0.00542 (58.4)^d %
Fe0-8 recovered in urine, of the last dose ([2]; Day 10, across CTB 400 mg + LED-E 300 mg q8h and CTB 400 mg + LED-E 500 mg q8h): less than 0.01%
CL renal [2, 8]: 0.402 mL/min
CL renal [2, 9]: 0.42 mL/min
AUC ([3]; Day 10, LED-E 75 mg q8h, 0 to 8 h post-dose): 85.5 ng·h/mL
Cmax ([3]; Day 10, LED-E 75 mg q8h): 122 ng/mL
Vd/F ([3]; Day 10, LED-E 75 mg q8h): 3880 L
Tmax ([3]; Day 10, LED-E 75 mg q8h): 0.5 h
AUC ([3]; Day 10, LED-E 150 mg q8h): 309 ng·h/mL
Cmax ([3]; Day 10, LED-E 150 mg q8h): 447 ng/mL
Vd/F ([3]; Day 10, LED-E 150 mg q8h): 3350 L
Tmax ([3]; Day 10, LED-E 150 mg q8h): 0.5 h
AUC ([3]; Day 10, LED-E 300 mg q8h): 480 ng·h/mL
Cmax ([3]; Day 10, LED-E 300 mg q8h): 629 ng/mL
Vd/F ([3]; Day 10, LED-E 300 mg q8h): 6080 L
Tmax ([3]; Day 10, LED-E 300 mg q8h): 0.5 h
AUC ([3]; Day 10, LED-E 500 mg q8h): 1050 ng·h/mL
Cmax ([3]; Day 10, LED-E 500 mg q8h): 919 ng/mL
Vd/F ([3]; Day 10, LED-E 500 mg q8h): 6290 L
half-life ([3]; 75 mg, Day 10, LED-E 75 mg q8h): 3.07 h
half-life ([3]; 150 mg, Day 10, LED-E 150 mg q8h): 4.78 h
half-life ([3]; 300 mg, Day 10, LED-E 300 mg q8h): 6.75 h
half-life ([3]; 500 mg, Day 10, LED-E 500 mg q8h): 9.14 h
CL renal ([4]; single dose LED-E 300 mg): 0.22 mL/min
CL renal ([4]; single dose LED-E 500 mg): 0.275 mL/min
CL renal ([4]; single dose LED-E 800 mg): 0.292 mL/min
CL renal ([4]; single dose LED-E 1000 mg): 0.393 mL/min
Ae0–8 ([4]; single dose LED-E 300 mg): 0.00779 (51.0) mg
Ae0–8 ([4]; single dose LED-E 500 mg): 0.0212 (38.4) mg
Ae0–48 ([4]; single dose LED-E 500 mg): 0.0212 (38.4) mg
Ae0–8 ([4]; single dose LED-E 800 mg): 0.0301 (49.2) mg
Ae0–48 ([4]; single dose LED-E 800 mg): 0.0301 (49.2) mg
Ae0–8 ([4]; single dose LED-E 1000 mg): 0.0542 (68.6) mg
Ae0–48 ([4]; single dose LED-E 1000 mg): 0.0542 (68.6) mg
Change in geometric mean AUCtau from the first to the last dose ([5]; Day 10, CTB 400 mg + LED-E 300 or 500 mg q8h, both dose groups): unchanged
AUC [5, 10]: 463 ng·h/mL
AUC [5, 11]: 1090 ng·h/mL
Cmax [5, 10]: 467 ng/mL
Cmax [5, 11]: 1180 ng/mL
Tmax ([5]; human, oral, Tmax, Day 10, CTB 400 mg + LED-E 300 mg q8h, median (range)): 0.5 h
half-life ([5]; human, oral, t1/2, Day 10, CTB 400 mg + LED-E 300 mg q8h): 7.68 h
half-life ([5]; human, oral, t1/2, Day 10, CTB 400 mg + LED-E 500 mg q8h): 10.7 h
AUC(0-inf) [6, 12]: 2300 ng·h/mL
Cmax [6, 12]: 1840 ng/mL
Vd/F [6, 12]: 2880 L
half-life ([6]; 1000 mg, single dose LED-E 1,000 mg, geometric mean (CV %), read-out: t1/2 (converted)): 4.59 h
half-life ([6]; across single doses LED-E 100 to 1,000 mg, read-out: Geometric mean t1/2): 2.8 to 4.7 h
AUC(0-inf) [6, 13]: 177 ng·h/mL
Cmax [6, 13]: 167 ng/mL
Vd/F [6, 13]: 2290 L
half-life ([6]; single dose LED-E 100 mg, geometric mean (CV %), read-out: t1/2 (converted)): 2.81 h
Tmax ([6]; single dose LED-E 100 mg): 0.5 h
AUC(0-inf) [6, 14]: 249 ng·h/mL
Cmax [6, 14]: 167 ng/mL
half-life ([6]; single dose LED-E 200 mg, geometric mean (CV %), read-out: t1/2 (converted)): 3.34 h
Tmax ([6]; single dose LED-E 200 mg): 0.5 h
AUC(0-inf) [6, 15]: 439 ng·h/mL
Cmax [6, 15]: 347 ng/mL
half-life ([6]; single dose LED-E 300 mg, geometric mean (CV %), read-out: t1/2 (converted)): 3.63 h
Tmax ([6]; single dose LED-E 300 mg): 0.5 h
AUC(0-inf) [6, 16]: 1290 ng·h/mL
Cmax [6, 16]: 917 ng/mL
Vd/F [6, 16]: 2640 L
half-life ([6]; single dose LED-E 500 mg, geometric mean (CV %), read-out: t1/2 (converted)): 4.7 h
AUC(0-inf) [6, 17]: 1720 ng·h/mL
Cmax [6, 17]: 1160 ng/mL
Vd/F [6, 17]: 2260 L
half-life ([6]; single dose LED-E 800 mg, geometric mean (CV %), read-out: t1/2 (converted)): 3.37 h
Tmax ([6]; single dose LED-E 800 mg): 0.5 h
CL renal ([7]; multiple doses LED-E 150 mg q8h): 0.247 mL/min
CL renal ([7]; multiple doses LED-E 300 mg q8h): 0.121 mL/min
CL renal ([7]; multiple doses LED-E 500 mg q8h): 0.433 mL/min
Ae0–48 ([7]; multiple doses LED-E 75 mg q8h, after last dose (Day 10)): below the limit of quantification
Ae0–48 ([7]; multiple doses LED-E 150 mg q8h, after last dose (Day 10)): 0.00488 (47.9) mg
Ae0–48 ([7]; multiple doses LED-E 300 mg q8h, after last dose (Day 10)): 0.00378 (218) mg
Ae0–8 [7, 18]: 0.0273 (38.5) mg
Ae0–48 [7, 18]: 0.0273 (38.5) mg
Ae0–48 ([7]; multiple doses LED-E 500 mg q8h, after last dose (Day 10), listed as LED-E): 0.03 mg
